Laboratory results as given in PubChem BioAssay (NCI).
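Where inhibition never reached the appropriate level, the endpoint shown equals the highest concentration tested. Otherwise, values were interpolated linearly from a five-concentration, 48-hour dose response in 96-well plates. TGI: concentration producing complete growth inhibition.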

Columns and labels:
Test in all cases: NCI anticancer screen, dose series, 48 h
MCF7 breast = system: MCF7 breast
K-562 leukemia = system: K-562 leukemia
U251 CNS = system: U251 CNS
UACC-257 melanoma = system: UACC-257 melanoma
SR leukemia = system: SR leukemia
SF-268 CNS = system: SF-268 CNS
HCT-15 colon = system: HCT-15 colon
DLD-1 colon = system: DLD-1 colon
LXFL 529 NSCLC = system: LXFL 529 NSCLC
M19-MEL melanoma = system: M19-MEL melanoma
DMS 114 small cell lung = system: DMS 114 small cell lung
KM20L2 colon = system: KM20L2 colon
DMS 273 small cell lung = system: DMS 273 small cell lung
HOP-18 NSCLC = system: HOP-18 NSCLC
SNB-78 CNS = system: SNB-78 CNS

SMILES	TGI (MCF7 breast)	TGI (K-562 leukemia)	TGI (U251 CNS)	TGI (UACC-257 melanoma)	TGI (SR leukemia)	TGI (SF-268 CNS)	TGI (HCT-15 colon)	TGI (DLD-1 colon)	TGI (LXFL 529 NSCLC)	TGI (M19-MEL melanoma)	TGI (DMS 114 small cell lung)	TGI (KM20L2 colon)	TGI (DMS 273 small cell lung)	TGI (HOP-18 NSCLC)	TGI (SNB-78 CNS)
CC1=NN(c2nc(N)nc(COc3ccc(N)cc3)n2)C(C)(C)C1	> 100 µM	> 100 µM	> 100 µM	> 100 µM	> 100 µM	> 100 µM	> 100 µM								
CC(C)(CN1CCCCC1)C(/C=C/c1ccc(Cl)cc1)=N\NC(=O)N/N=C(/C=C/c1ccc(Cl)cc1)C(C)(C)CN1CCCCC1	> 35.3 µM	> 100 µM	12.6 µM	17.1 µM	8.52 µM	21.6 µM	7.99 µM								
COc1ccc(C2Oc3cc(OC)c(OC)cc3C2CCl)cc1OC (centres undefined)		> 100 µM	> 100 µM	> 100 µM	> 100 µM	> 100 µM	> 100 µM	> 100 µM	> 100 µM	> 100 µM	> 100 µM	> 100 µM	> 100 µM		
COc1cc(OCCN(C)C)c2[nH]c(C(=O)N3CC(CCl)c4ccc(N)cc43)cc2c1 (centres undefined)	0.133 µM	> 100 µM	3.32 µM	0.329 µM	> 100 µM	0.908 µM	1.58 µM								
COC(=O)[C@]1(C)CCC[C@@]2(C)C1CC[C@@]13C=C(C(C)C)[C@@H](CC1=O)CC23 (some centres undefined)	64 µM	30.2 µM	39.2 µM	62.4 µM	30.9 µM	> 100 µM	45.4 µM								
C[N+]12C=CC=C1C(N1CCCC1)c1scc(-c3ccc(Br)cc3)c12 (centres undefined)	> 90.1 µM	> 89.9 µM	24.7 µM	> 51.9 µM	35.5 µM	37 µM	> 100 µM								
COc1ccc(NC(=S)c2ccc(CN3CCCCC3)s2)cc1	33.3 µM	42.1 µM	34.8 µM	35.6 µM	51.8 µM	> 100 µM	26.9 µM								
N#C/C(N)=C(\C#N)NC=NCCO	> 100 µM	> 100 µM	> 100 µM	> 100 µM	> 100 µM	> 100 µM	> 100 µM								
COCCOCOC(CCCCO)c1cc(C)c(O[Si](C)(C)C(C)(C)C)c(C)c1 (centres undefined)		16.3 µM	23.6 µM	15.7 µM		20.4 µM	21.1 µM		22.6 µM	18 µM	10.2 µM	17.9 µM		30.8 µM	
O=C1c2ccccc2-n2nnnc2C2CSCN12 (centres undefined)	> 100 µM	> 100 µM	> 100 µM	> 100 µM	> 100 µM	> 100 µM	> 100 µM								
COC(=O)c1ccc(Cc2cc(Cc3ccc(C(=O)OC)cc3)cc(Cc3ccc(C(=O)OC)cc3)c2)cc1	> 25 µM	> 25 µM	> 25 µM	> 25 µM	> 25 µM	> 25 µM	> 25 µM								
O=c1[nH]c(=O)c2c3n(cc2[nH]1)CCCCC3	> 100 µM	> 100 µM	> 100 µM	> 100 µM	> 100 µM	> 100 µM	> 100 µM								
O=C1c2sc(-c3ccc(Cl)cc3)cc2-n2cccc21	> 100 µM	> 100 µM	> 100 µM	> 100 µM	> 100 µM	> 100 µM	> 100 µM								
CC(C)=C[C@H]1C[C@H](C)[C@H]2CC[C@H](C)c3c2c1c(C)c1ncoc31	30.5 µM	> 100 µM	34 µM	33.5 µM	40.9 µM	46 µM	34.8 µM								
O=C(C(=O)n1ccc2ccccc21)n1ccc2ccccc21	> 100 µM	> 100 µM	> 100 µM	> 100 µM	> 100 µM	> 100 µM	> 100 µM								
CC1=C/C(=N\NC(N)=S)C(C(O)(C(F)(F)F)C(F)(F)F)C(C)(C)C1 (centres undefined)	> 10 µM	> 10 µM	> 10 µM	> 10 µM	> 10 µM	> 10 µM	> 10 µM								
O=C1c2cc3c(cc2CC12Cc1ccc4c(c1C2=O)CCC4)CCCC3 (centres undefined)	> 100 µM	> 100 µM	> 100 µM	> 100 µM	> 100 µM	> 100 µM	> 100 µM								
COc1ccc(C(C)NNC(=O)c2ccncc2)cc1OC (centres undefined)	> 100 µM	> 100 µM	> 100 µM	> 100 µM	> 100 µM	> 100 µM	> 100 µM								
O=C(Nc1c(O)[nH]c(=S)[nH]c1=O)c1ccccc1		> 100 µM	> 100 µM	> 100 µM	> 100 µM	> 100 µM	> 100 µM	> 100 µM	> 100 µM	> 100 µM	> 100 µM	> 100 µM		> 100 µM	> 100 µM
COc1ccccc1CC(=O)C(O)(C(F)(F)F)C(F)(F)F	> 100 µM	> 100 µM	> 100 µM	> 100 µM	> 100 µM	> 100 µM	> 100 µM								
CCOC(=O)CCC(NC(=O)C(N)Cc1ccc(N(CCCl)CCCl)cc1)C(=O)OCC (centres undefined)	9.5 µM	12.7 µM	7.41 µM	5.2 µM	14 µM	4 µM	1.93 µM								
C[C@]12[C@@H]3CC[C@H]1[C@@H](O)C(=O)N2CC3	> 100 µM	> 100 µM	> 100 µM	> 100 µM	> 100 µM	> 100 µM	> 100 µM								
COc1ccc(C2c3cc4c(cc3OC3(OC)COC(=O)C23)OCO4)c(OC)c1 (centres undefined)	90.4 µM	34.4 µM	> 100 µM	> 100 µM	> 100 µM	> 100 µM	> 100 µM								
CC(N)/C(N)=N/O (centres undefined)	> 100 µM	> 100 µM	> 100 µM	> 100 µM	> 100 µM	> 100 µM	> 100 µM								
CCOC(=O)CCCSCCCC(=O)CCCSCCCC(=O)OCC	> 100 µM	> 100 µM	> 100 µM	> 100 µM	> 100 µM	> 100 µM	> 100 µM								
